Measurements as given in publication PMC8878717, “The Oxime Ethers with Heterocyclic, Alicyclic and Aromatic Moiety as Potential Anti-Cancer Agents” (Molecules, 2022).
≈ marks a conversion by molar mass, not a printed value. Where “and” joins values, the source holds several entries; their conditions need not be identical. Identical values can stand only once. Like-named read-outs stand apart in the source and are kept apart here.

What was measured:
A549 cells = assay: MTT cytotoxicity test on A549 cells; assay type: cell-based; conditions: Homo sapiens
Description: (§1) Therefore, compounds showing the highest cytotoxicity (8, 9, 18, 22, 24–27) were further tested on normal human dermal fibroblasts (HDF), A549, Caco-2, and HeLa cells to compare their activity after 24 h and 72 h culture (Figure 5 and Figure 6).
(§2) 2-Acetylbenzofuran, 2-acetylbenzothiophene, 2-acetylthiophene, 2-acetylthiazole, cyclohexanone and acetophenone derivatives were used for in vitro cytotoxicity assays with cervical adenocarcinoma (HeLa), human dermal fibroblasts (HDF), lung epithelial carcinoma (A549), and intestinal epithelial carcinoma (Caco-2) cell lines. A549, Caco-2, and HeLa cells were obtained from Sigma-Aldrich (Germany), and HDF from Biokom (Poland). All cell lines were cultured according to the manufacturer’s protocol under sterile conditions in the presence of 4.9% CO2 at 37 °C. A549 cells were grown in F-12 medium containing 10% fetal bovine serum (FBS) and 1% penicillin/streptomycin. HDF cells were grown in DMEM (low glucose, with 2 mM glutamine) medium containing 10% fetal bovine serum (FBS) and 1% penicillin/streptomycin. Caco-2 cells were grown in EMEM medium containing 10% fetal bovine serum (FBS), 1% non-essential amino acids (NEAA) and 1% penicillin/streptomycin. HeLa cells were grown in DMEM (low glucose, with 2 mM glutamine) medium containing 10% fetal bovine serum (FBS) and 1% gentamycin. After thawing, cells were cultured until they reached sub-confluent state. The cells were then detached using 0.25% trypsin solution and seeded into 24-well or 96-well plates (3 × 10^3 cells per well) for further experiments. After 24 h growth, the tested compounds were added to the cell cultures in concentrations of 1, 10, 50, 100 and 250 μg mL^−1, respectively, and incubated for the next 24 h or 72 h. The MTT test, based on the ability to reduce 3-(4,5-dimethylthiazol 2-yl)-2,5-diphenyltetrazolium bromide (MTT) by mitochondrial dehydrogenases, was performed in triplicate to assess cell metabolic activity and viability. The plates were then read spectrophotometrically at a wavelength of 570 nm. The dose-dependence curves were charted directly on x-/y-axes, with the drug dosages on the x-axis and the cell viability (percentage of viable cells) on the y-axis.

Caco-2 cells = assay: MTT cytotoxicity test on Caco-2 cells; assay type: cell-based, human
Description: as §1, §2

[1] = tested on: human dermal fibroblasts (HDF); assay: MTT cytotoxicity test on HDF cells; assay type: cell-based; conditions: Homo sapiens, Fibroblast, HDF, MTT
Description: as §1, §2

[2] = MTT cytotoxicity test on HDF cells; assay type: cell-based, human; conditions: human, human dermal fibroblasts (HDF); 50 μg/mL, 24 h exposure
Description: as §1, §2

HeLa cells [3] = assay: MTT cytotoxicity test on HeLa cells; assay type: cell-based, human
Description: Cytotoxic properties of all compounds were determined by 3-(4,5-dimethylthiazol-2-yl)-2,5-diphenyltetrazolium bromide (MTT) test reflecting cell viability. Cytotoxicity screening of all 27 compounds—2-acetylbenzofuran oxime (6) and its oxime ethers (1–5), as well as: 2-acetylthiophene (7–17), cyclohexanone (18–20), acetophenone (21–23), thiazole (24–25), benzothiazole (26–27) oxime ethers—was performed in vitro on human cervical adenocarcinoma (HeLa) cells as the representatives of cancerous cells.
as §2

cells = assay: LDH activity test (cell-membrane damage), cell lines not given; assay type: cell-based, human; conditions: exposure at EC50 concentration, 24 h and 72 h; positive control 1% Triton X-100 = 100%
Description: (§3) Summing up, only a few of the 27 tested derivatives could be promising as potential anti-cancer agents. Two of them—compound 22 and 27—would be a good starting point for future research. Therefore, we sought to compare their ability to induce necrotic cell death. Since necrotic cell death relies on the disruption of cell membrane, it results in the extracellular release of cytoplasmic enzymes such as lactate dehydrogenase (LDH). Thus, we compared LDH activity in the extracellular environment (culture media).
(§4) Additionally, the lactate dehydrogenase (LDH) activity test reflecting cell-membrane damage was performed for cells exposed to selected tested compounds. LDH activity was determined in the culture medium by measuring the decrease in NADH (nicotinamide adenine dinucleotide, reduced disodium salt). The decrease in the amount of NADH was directly correlated to the increase in the number of damaged cells. To measure LDH activity, the culture medium was collected from the wells with cells exposed to concentrations equal to the EC50 values of tested compounds after short- (24 h), and long-time (72 h) exposure. The LDH activity test was performed as follows: 25 μL of NADH (2.5 mg/mL) and 25 μL of sodium pyruvate (2.5 mg/mL) were added to 150 μL of the collected culture medium. Absorbance at 340 nm was spectrophotometrically measured. […]

HeLa cells [4] = assay: LDH activity test (cell-membrane damage), HeLa cells; assay type: cell-based; conditions: exposure at EC50 concentration
Description: as §3, §4

[5] = A549, 24 h, MTT, read-out: EC50 Value A549 24 h
[6] = A549, 72 h, MTT, read-out: EC50 Value A549 72 h
[7] = Homo sapiens, Caco-2, 24 h, MTT, read-out: EC50 Value Caco-2 24 h
[8] = Homo sapiens, Caco-2, 72 h, MTT, read-out: EC50 Value Caco-2 72 h
[9] = 24 h, read-out: EC50 Value HDF 24 h
[10] = 72 h, read-out: EC50 Value HDF 72 h
[11] = Homo sapiens, HeLa, 24 h, HeLa, 24 h culture, MTT, read-out: EC50 for HeLa Cells
[12] = Homo sapiens, HeLa, 72 h, HeLa, 72 h, MTT, read-out: EC50 Value HeLa 72 h

| Structure (SMILES) | EC50 (A549 cells; [5]) | EC50 (A549 cells; [6]) | EC50 (A549 cells; A549, 72 h, read-out: EC50 A549) | viability at 50 µg/mL (A549 cells; A549, 50 μg/mL, 24 h exposure) | EC50 (Caco-2 cells; [7]) | EC50 (Caco-2 cells; [8]) | EC50 (Caco-2 cells; Homo sapiens, Caco-2, 72 h, read-out: EC50 Caco-2) | viability at 50 µg/mL (Caco-2 cells; Homo sapiens, Caco-2, 50 μg/mL, 24 h exposure) | EC50 [1, 9] | EC50 [1, 10] | viability at 24 h, 50 μg/mL [2] | viability of HeLa cells (of control) (HeLa cells [3]; 100–250 μg/mL, MTT) | EC50 (HeLa cells [3]; [11]) | EC50 (HeLa cells [3]; [12]) | EC50 (HeLa cells [3]; Homo sapiens, HeLa, 72 h, HeLa, 72 h, read-out: EC50 HeLa) | viability at 50 µg/mL (HeLa cells [3]; Homo sapiens, HeLa, 50 μg/mL, 24 h exposure) | increase in LDH activity outside the cells (of positive control) (cells) | membrane damage and release of LDH (HeLa cells [4]) | EC50 Value Caco-2 72 h (Caco-2 cells; Caco-2, 72 h, MTT) | EC50 Value HeLa 72 h (HeLa cells [3]; HeLa, 72 h, MTT) |
| --- | --- | --- | --- | --- | --- | --- | --- | --- | --- | --- | --- | --- | --- | --- | --- | --- | --- | --- | --- | --- |
| C/C(=N\OCCN1CCOCC1)c1ccccc1 [Compound 22, (E)-acetophenone O-2-morpholinoethyl oxime] | 10.2 µg/mL and 40 µM | 30 µM | ~30 µM | ~20% | 9.45 µg/mL and 40 µM | 30 µM | ~30 µM | ~20% | 27.3 µg/mL and 110 µM | 8.04 µg/mL and 30 µM | ~20% | below 20% | 23.1 µg/mL and 90 µM | 30 µM | ~30 µM | ~20% | ≤ 20% |  |  |  |
| COc1ccc(CO/N=C(\C)c2cc3ccccc3s2)cc1 [Compound 27, (E)-1-(benzothiophene-2-yl)ethanone O-4-methoxybenzyl oxime] | > 250 µg/mL and > 800 µM | 143 µg/mL and 460 µM |  |  | 122 µg/mL and 390 µM | 116 µg/mL and 370 µM |  |  | 150 µg/mL and 480 µM | 140 µg/mL and 450 µM |  |  | 93.8 µg/mL and 300 µM | 28 µg/mL and 90 µM |  |  |  | extreme membrane damage and release of LDH | 116.47 µg/mL (≈ 374 µM) | 27.9 µg/mL (≈ 89.6 µM) |
